Reference: patent US10450356B2, “PRAME derived peptides and immunogenic compositions comprising these” (Academisch Ziekenhuis Leiden H.O.D.N. LUMC, priority 2007, dated 2019)

Biological target: T1, 20S proteasomes purified from a B-LCL cell line (immunoproteasomes) (Homo sapiens, UniProt P28062+P28065+P40306)
T1 construct: 20S proteasomes were purified from a B-LCL cell line; endogenous in cells; purified after Groettrup et al. 1995
Experiment: In vitro proteasome mediated cleavage analysis
Type: biochemical
Parameters: key to Intact in fragment / Intact Fragment: intact epitope found in digestion fragments: (+), present; (-), not present; key to Processing C-term: generation by proteasome-mediated digestion of fragments containing the correct C-terminus: (++) fragments present for >5%; (+) present for <5%; (-) no fragments containing the C-term. were found
Conditions: for Processing C-term: generation by proteasome-mediated digestion of fragments containing the correct C-terminus: 1 h digestion; for Intact Fragment: intact epitope found in digestion fragments: after 1 h digestion; for C-term. generation: generation of C-terminus of the epitope after 1 h digestion; for Intact in fragment: intact epitope found in digestion fragments after 1 h digestion
Protocol: 20S proteasomes were purified from a B-LCL cell line as described by Groettrup et al. (J. Biol. Chem. 270:23808-23815; 1995). This cell type is known to contain immunoproteasomes. High LMP2 and 7 content was confirmed by 2-D immuno-blotting. To assess kinetics, digestions were performed with different incubation periods. Peptides (27 mers, 20 μg) were incubated with 1 μg of purified proteasome at 37° C. for 1 h, 4 h and 24 h in 300 μl proteasome digestion buffer as described (Eggers, et al. 1995. J. Exp. Med. 182:1865). Trifluoroacetic acid was added to stop the digestion and samples were stored at −20° C. before mass spectrometric analysis.
Electrospray ionization mass spectrometry was performed on a hybrid quadrupole time-of-flight mass spectrometer, a Q-TOF (Micromass), equipped with an on-line nanoelectrospray interface with an approximate flow rate of 250 nL/min. Injections were done with a dedicated micro/nano HPLC autosampler, the FAMOS (LC Packings). Digestion solutions were diluted five times in water-methanol-acetic acid (95:5:1, v/v/v), and trapped on the precolumn (MCA-300-05-C8; LC Packings) in water-methanol-acetic acid (95:5:1, v/v/v). Washing of the precolumn was done for 3 min to remove the buffers present in the digests. Subsequently, the trapped analytes were eluted with a steep gradient going from 70% B to 90% B in 10 min, with a flow of 250 nl/min (A: water-methanol-acetic acid (95:5:1, v/v/v); B: water-methanol-acetic acid (10:90:1, v/v/v)). This low elution rate allows for a few additional MS/MS experiments if necessary during the same elution. Mass spectra were recorded from mass 50-2000 Da every second. The resolution allows direct determination of the monoisotopic mass, also from multiple charged ions. The peaks in the mass spectrum were searched in the digested precursor peptide using the Biolynx/proteins software (Micromass). The intensity of the peaks in the mass spectra was used to establish the relative amounts of peptides generated by proteasome digestion.

Row | SMILES | Processing C-term: generation by proteasome-mediated digestion of fragments containing the correct C-terminus | Intact Fragment: intact epitope found in digestion fragments | C-term. generation | Intact in fragment
1 | C[C@@H](O)[C@H](NC(=O)[C@H](CCCNC(=N)N)NC(=O)[C@H](CC(=O)O)NC(=O)CNC(=O)[C@H](CS)NC(=O)[C@H](Cc1c[nH]cn1)NC(=O)[C@@H]1CCCN1C(=O)[C@@H](N)CS)C(=O)N[C@@H](Cc1ccccc1)C(=O)N[C@@H](Cc1ccc(O)cc1)C(=O)O | - | - |  | 
2 | CC(C)C[C@H](NC(=O)[C@H](Cc1ccccc1)NC(=O)[C@H](Cc1ccccc1)NC(=O)[C@H](CC(C)C)NC(=O)[C@H](CO)NC(=O)[C@H](CC(=O)O)NC(=O)[C@@H](NC(=O)[C@H](Cc1ccc(O)cc1)NC(=O)[C@@H](N)CC(C)C)C(C)C)C(=O)O | ++ ((++) fragments present for >5%) | + | ++ (abundant (++) present for >5%) | +
3 | CC(C)C[C@H](NC(=O)[C@@H](NC(=O)[C@@H]1CCCN1)[C@@H](C)O)C(=O)N[C@@H](C)C(=O)N[C@@H](CCCCN)C(=O)N[C@@H](Cc1ccccc1)C(=O)N[C@@H](CO)C(=O)N1CCC[C@H]1C(=O)N[C@@H](Cc1ccc(O)cc1)C(=O)O | - | - |  | 
4 | CC(C)C[C@H](NC(=O)[C@@H]1CCCN1C(=O)[C@H](CCC(=O)O)NC(=O)[C@@H]1CCCN1C(=O)[C@H](CO)NC(=O)[C@@H](NC(=O)[C@H](CC(=O)O)NC(=O)[C@@H](NC(=O)[C@@H](N)CC(C)C)[C@@H](C)O)C(C)C)C(=O)N[C@@H](CCC(N)=O)C(=O)O | + ((+) present for <5%) | + | + (low abundant (+) present for <5%) | +
5 | CC[C@H](C)[C@H](NC(=O)[C@H](C)NC(=O)[C@H](CC(C)C)NC(=O)[C@H](C)N)C(=O)N[C@@H](C)C(=O)N[C@@H](C)C(=O)N[C@@H](CC(C)C)C(=O)N[C@@H](CCC(=O)O)C(=O)N[C@@H](CC(C)C)C(=O)O | - | - |  | 
6 | CC[C@H](C)[C@H](NC(=O)[C@H](CO)NC(=O)[C@@H](NC(=O)[C@H](CO)NC(=O)[C@H](CC(N)=O)NC(=O)CNC(=O)[C@H](Cc1ccc(O)cc1)NC(=O)[C@H](Cc1ccccc1)NC(=O)[C@@H](N)CO)[C@@H](C)CC)C(=O)O | ++ ((++) fragments present for >5%) | + | ++ (abundant (++) present for >5%) | +
7 | CC(C)C[C@H](NC(=O)[C@H](Cc1c[nH]cn1)NC(=O)[C@H](CCC(N)=O)NC(=O)[C@H](CC(C)C)NC(=O)[C@H](CC(C)C)NC(=O)[C@H](CO)NC(=O)[C@H](CCC(N)=O)NC(=O)[C@H](CC(C)C)NC(=O)[C@H](C)N)C(=O)O | - | - |  | 
8 | CC[C@H](C)[C@H](NC(=O)[C@H](CC(C)C)NC(=O)[C@@H](N)Cc1ccc(O)cc1)C(=O)N[C@@H](CCC(=O)O)C(=O)N[C@@H](CCCCN)C(=O)N[C@H](C(=O)N[C@@H](CCCCN)C(=O)N[C@@H](CCCNC(=N)N)C(=O)N[C@@H](CCCCN)C(=O)N[C@@H](CCCCN)C(=O)O)C(C)C | - | - |  | 
9 | CC[C@H](C)[C@H](N)C(=O)N[C@H](C(=O)N[C@@H](CC(=O)O)C(=O)N[C@@H](CC(=O)O)C(=O)N[C@@H](CCC(N)=O)C(=O)N[C@@H](CC(C)C)C(=O)N[C@@H](CC(C)C)C(=O)N[C@@H](C)C(=O)N[C@@H](CC(C)C)C(=O)N[C@@H](CC(C)C)C(=O)O)[C@@H](C)O |  |  | + (low abundant (+) present for <5%) | +
